Results as given in patent US6683077B2, “2-Amino-benzoxazinones for the treatment of viral infections” (G.D. Searle & Co., priority 1996, dated 2004).

What was measured:
[1] = test system: HCMV engineered virus RC256; test: microbe, parasite or virus in culture; type: cell-based, human cytomegalovirus; details: Human betaherpesvirus 5, Fibroblast, read-out: Antiviral Activity RC256, first value (EC50)
[2] = molecular target: T1, Human leukocyte elastase (HLE) (Homo sapiens, UniProt P08246); test: Human leukocyte elastase assay; type: biochemical
T1 construct: gift of R. Senior, Washington University
T1 sequence (P08246 30-267): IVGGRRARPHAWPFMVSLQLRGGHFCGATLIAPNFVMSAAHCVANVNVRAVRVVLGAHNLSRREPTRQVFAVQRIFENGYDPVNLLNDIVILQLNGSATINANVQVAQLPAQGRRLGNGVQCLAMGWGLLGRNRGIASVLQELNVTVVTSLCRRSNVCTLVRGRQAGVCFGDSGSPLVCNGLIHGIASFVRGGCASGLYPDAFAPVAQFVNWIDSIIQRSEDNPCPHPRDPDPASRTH
Protocol: Human leukocyte elastase (HLE) (gift of R. Senior, Washington University) was dissolved in saline at 1 mg/ml and further diluted 1/20 in assay buffer (0.2 M Tris, pH 8.0) before use. 10 μl of test compound in DMSO (or DMSO alone), 100 μl of assay buffer and 50 μl of enzyme were added to 96 well plates, mixed and pre-incubated for 30 minutes at ambient temperature. Reaction was initiated by addition of 40 μl of 2.5 mM methoxysuccinyl-Ala-Ala-Pro-Val-p-nitroanilide (Sigma; 25 mM in DMSO diluted 1/10 in assay buffer before use). The increase in absorbance at 405 nm was monitored for 10 minutes with a Biotek EL340 plate reader.

[3] = @ 1 (concentration unit not given)
[4] = @ 10 (concentration unit not given)

| SMILES | EC50 [1] | HLE, % @ concentration [2, 3] | HLE, % @ concentration [2, 4] |
| --- | --- | --- | --- |
| COc1ccc(C[C@H](Nc2nc3ccc(CNC(=O)Cc4ccc(N(C)C)cc4)c(C)c3c(=O)o2)C(=O)N(C)Cc2ccccc2)cc1 [Example 9o, αS-[[6-[[[[4-(Dimethylamino)phenyl]acetyl]amino]methyl]-5-methyl-4-oxo-4H-3,1-benzoxazin-2-yl]amino]-4-methoxy-N-methyl-N-(phenylmethyl)benzenepropanamide] | 14 µM | 73% @ 1 | – |
| Cc1c(CNC(=O)N[C@H](C)c2ccccc2)ccc2nc(N[C@@H](Cc3ccccc3)C(=O)N(C)Cc3ccccc3)oc(=O)c12 [Example 12g] | 30 µM | 45% @ 1 | – |
| Cc1c(CNC(=O)OC(C)(C)C)ccc2nc(N[C@@H](Cc3ccccc3)C(=O)N(C)c3ccccc3)oc(=O)c12 [Example 7m, 1,1-Dimethylethyl([5-methyl-2-[[2-(methylphenylamino)-2-oxo-1S-(phenylmethyl)ethyl]amino]-5-methyl-4-oxo-4H-3,1-benzoxazin-6-yl]methyl]carbamate] | 5.2 µM | – | 55% @ 10 |
| Cc1c(NC(=O)OC(C)(C)C)ccc2nc(N[C@H]3CCN(c4ccc(C#N)cc4)C3=O)oc(=O)c12 [Example 6y] | 67 µM | – | 25% @ 10 |
| COc1ccc(C[C@H](Nc2nc3ccc(CNC(=O)OC(C)(C)C)c(C)c3c(=O)o2)C(=O)N2CCCC2)cc1 [Example 7g, 1,1-Dimethylethyl[[2-[[1S-[(4-methoxyphenyl)methyl]-2-oxo-2-(1-pyrrolidinyl)ethyl]amino]-5-methyl-4-oxo-4H-3,1-benzoxazin-6-yl]methyl]carbamate] | 20 µM | – | 39% @ 10 |
| COc1ccc(C[C@H](Nc2nc3ccc(CNC(=O)CC(C)(C)C)c(C)c3c(=O)o2)C(=O)N(C)Cc2ccccc2)cc1 [Example 9m, αS-[[6-[[(3,3-Dimethyl-1-oxobutyl)amino]methyl]-5-methyl-4-oxo-4H-3,1-benzoxazin-2-yl]amino]-4-methoxy-N-methyl-N-(phenylmethyl)benzenepropanamide] | 14 µM | 73% @ 1 | – |
| Cc1c(CNC(=O)c2ccccn2)ccc2nc(N[C@@H](Cc3ccccc3)C(=O)N(C)Cc3ccccc3)oc(=O)c12 [Example 9s, N-[[5-Methyl-2-[[2-[methyl(phenylmethyl)amino]-2-oxo-1S-(phenylmethyl)ethyl]amino]-4-oxo-4H-3,1-benzoxazin-6-yl]methyl]pyridine-2-carboxamide] | 7.5 µM | – | 55% @ 10 |
| CCN(C(=O)[C@H](Cc1ccccc1)Nc1nc2ccc(CNC(=O)OC(C)(C)C)c(C)c2c(=O)o1)c1ccccc1 [Example 7n] | 16 µM | – | 16% @ 10 |
| Cc1c(CNC(=O)OCc2ccccc2)ccc2nc(N[C@@H](Cc3ccccc3)C(=O)N(C)CCc3ccccc3)oc(=O)c12 [Example 9dd, Phenylmethyl[[5-methyl-2-[[2-[methyl(2-phenylethyl)amino]-2-oxo-1S-(phenylmethyl)ethyl]amino]-4-oxo-3,1-benzoxazin-6-yl]methyl]carbamate] | 45 µM | – | 78% @ 10 |
| COc1ccc(C[C@H](Nc2nc3ccc(CNC(=O)OCc4ccncc4)c(C)c3c(=O)o2)C(=O)N(C)Cc2ccccc2)cc1 [Example 18d, (4-Pyridinyl)methyl[[2-[[1S-[(4-methoxyphenyl)methyl]-2-[methyl(phenylmethyl)amino]-2-oxoethyl]amino]-5-methyl-4-oxo-3,1-benzoxazin-6-yl]methyl]carbamate] | 12 µM | 55% @ 1 | – |
| CCN(C(=O)[C@H](Cc1ccc(OC)cc1)Nc1nc2ccc(CNC(=O)OC(C)(C)C)c(C)c2c(=O)o1)c1ccccc1 [Example 7u, 1,1-Dimethylethyl[[2-[[2-(ethylphenylamino)-1S-[(4-methoxyphenyl)methyl]-2-oxoethyl]amino]-5-methyl-4-oxo-4H-3,1-benzoxazin-6-yl]methyl]carbamate] | 35 µM | – | 75% @ 10 |
